Earlier results in patent publication US20150104511A1, “Pharmaceutical Antiretroviral Combinations Comprising Lamivudine, Festinavir and Nevirapine” (Cipla Limited, priority 2012, published 2015).

Experiments:
[1] = target: RT (Reverse Transcriptase) (Human immunodeficiency virus type 1 group M subtype B, UniProt P04585); details: compared to d4T-triphosphate
mtDNA pol γ = target: T1, mtDNA pol γ (Homo sapiens, UniProt P54098); details: compared to d4T-triphosphate
T1 sequence (P54098 1-1239): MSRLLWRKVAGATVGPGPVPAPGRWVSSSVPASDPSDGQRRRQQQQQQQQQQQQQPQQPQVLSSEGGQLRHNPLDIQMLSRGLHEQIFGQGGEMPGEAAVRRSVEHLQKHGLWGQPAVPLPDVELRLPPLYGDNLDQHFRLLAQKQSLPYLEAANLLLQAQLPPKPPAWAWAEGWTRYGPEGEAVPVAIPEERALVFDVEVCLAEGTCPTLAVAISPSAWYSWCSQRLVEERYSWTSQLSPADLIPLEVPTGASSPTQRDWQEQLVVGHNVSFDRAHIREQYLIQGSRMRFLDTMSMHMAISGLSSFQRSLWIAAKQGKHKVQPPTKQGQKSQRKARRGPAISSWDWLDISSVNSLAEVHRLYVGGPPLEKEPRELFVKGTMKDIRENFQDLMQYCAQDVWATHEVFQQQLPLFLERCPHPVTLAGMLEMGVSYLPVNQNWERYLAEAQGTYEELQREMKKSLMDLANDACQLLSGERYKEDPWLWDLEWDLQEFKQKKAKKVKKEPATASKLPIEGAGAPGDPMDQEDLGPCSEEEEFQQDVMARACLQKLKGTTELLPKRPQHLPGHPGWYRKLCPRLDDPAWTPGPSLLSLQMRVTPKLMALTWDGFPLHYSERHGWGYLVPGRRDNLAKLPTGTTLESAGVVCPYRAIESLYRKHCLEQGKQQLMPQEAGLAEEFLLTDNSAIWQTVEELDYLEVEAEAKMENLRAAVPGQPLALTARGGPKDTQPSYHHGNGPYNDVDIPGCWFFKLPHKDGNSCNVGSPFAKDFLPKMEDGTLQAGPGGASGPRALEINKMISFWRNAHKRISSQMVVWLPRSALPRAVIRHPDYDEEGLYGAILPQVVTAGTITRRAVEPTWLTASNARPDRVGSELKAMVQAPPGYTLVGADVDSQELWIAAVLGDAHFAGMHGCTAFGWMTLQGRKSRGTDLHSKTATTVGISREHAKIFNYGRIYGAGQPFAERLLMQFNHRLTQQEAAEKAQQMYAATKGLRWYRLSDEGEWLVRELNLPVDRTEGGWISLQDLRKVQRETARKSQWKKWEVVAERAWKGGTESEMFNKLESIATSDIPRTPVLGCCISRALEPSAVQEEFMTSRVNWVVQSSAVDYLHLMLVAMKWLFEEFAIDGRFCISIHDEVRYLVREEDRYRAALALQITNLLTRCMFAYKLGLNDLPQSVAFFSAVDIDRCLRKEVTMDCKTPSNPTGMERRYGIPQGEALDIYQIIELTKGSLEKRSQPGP

| Structure (SMILES) | increase in affinity to RT (Reverse Transcriptase) [1] | interactions with mtDNA pol γ (mtDNA pol γ) | persistence of anti-HIV activity after drug removal (HIV; compared with the other thymidine analogs) | improved potency as compared to stavudine (d4T) (HIV; relative to stavudine (d4T)) | in vitro toxicity, including effects on mtDNA (mtDNA; as compared to stavudine (d4T)) | cellular and mitochondrial toxicity (mtDNA; compared with stavudine (d4T)) |
| --- | --- | --- | --- | --- | --- | --- |
| C#C[C@@]1(COP(=O)(O)OP(=O)(O)OP(=O)(O)O)C=C[C@H](n2cc(C)c(=O)[nH]c2=O)O1 [4′-Ed4T triphosphate] | approximately 5 fold | reduces the interactions with mtDNA pol γ | – | – | – | – |
| C#C[C@@]1(CO)C=C[C@H](n2cc(C)c(=O)[nH]c2=O)O1 [Festinavir, 2′,3′-didehydro-3′-deoxy-4′-ethynylthymidine] | – | – | more persistent anti-HIV activity after drug removal | 5-10 fold | reduced in vitro toxicity | lower cellular and mitochondrial toxicity |
